Data: PubChem BioAssay AID256 (DTP/NCI, 2004)
Where “and” joins values, the source holds several entries; their conditions need not be identical. Identical values can stand only once. Inconclusive results and toxic doses are left out. The calls were made as follows: active = survival T/C of 150% or more; inactive = T/C below 125% in these data.

Tested on: CD2F1 mice, L1210 leukemia ip, survival T/C
Assay: NCI In Vivo Anticancer Drug Screen. Data for tumor model L1210 Leukemia (intraperitoneal) in CD2F1 (CDF1) mice
Conditions: higher = longer survival
In short: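 Vehicle-treated tumor-bearing mice served as controls (C) for compound-treated mice (T). Reported figure is T divided by C.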

[1] = endpoint: mean survival time, dose: 25.0 mg/kg/injection, schedule: Q01DX009 (ip), vehicle: saline with Tween-80
[2] = endpoint: mean survival time, dose: 50.0 mg/kg/injection, schedule: Q01DX009 (ip), vehicle: saline with Tween-80
[3] = endpoint: mean survival time, dose: 100.0 mg/kg/injection, schedule: Q01DX001 (ip), vehicle: saline with Tween-80
[4] = endpoint: mean survival time, dose: 100.0 mg/kg/injection, schedule: Q01DX009 (ip), vehicle: saline with Tween-80
[5] = endpoint: mean survival time, dose: 100.0 mg/kg/injection, schedule: Q04DX003 (ip), vehicle: saline with Tween-80
[6] = endpoint: mean survival time, dose: 200.0 mg/kg/injection, schedule: Q01DX001 (ip), vehicle: saline with Tween-80
[7] = endpoint: mean survival time, dose: 200.0 mg/kg/injection, schedule: Q04DX002 (ip), vehicle: saline with Tween-80
[8] = endpoint: mean survival time, dose: 200.0 mg/kg/injection, schedule: Q04DX003 (ip), vehicle: saline with Tween-80
[9] = endpoint: mean survival time, dose: 400.0 mg/kg/injection, schedule: Q04DX002 (ip), vehicle: saline with Tween-80
[10] = endpoint: mean survival time, dose: 200.0 mg/kg/injection, schedule: Q01DX009 (ip), vehicle: saline with Tween-80
[11] = endpoint: mean survival time, dose: 400.0 mg/kg/injection, schedule: Q01DX009 (ip), vehicle: saline with Tween-80
[12] = endpoint: median survival time, dose: 6.25 mg/kg/injection, schedule: Q01DX009 (ip), vehicle: saline with Tween-80
[13] = endpoint: median survival time, dose: 12.5 mg/kg/injection, schedule: Q01DX009 (ip), vehicle: saline with Tween-80
[14] = endpoint: mean survival time, dose: 12.5 mg/kg/injection, schedule: Q01DX009 (ip), vehicle: saline with Tween-80

Measured: T/C

CCCOC(=O)c1ccc(NC(=O)Nc2ccc(C(=O)OCC)cc2)cc1
inactive: endpoint: mean survival time, dose: 25.0 mg/kg/injection, schedule: Q01DX001 (ip), vehicle: saline with Tween-80 96 % of control | [1] 88 % of control | endpoint: mean survival time, dose: 25.0 mg/kg/injection, schedule: Q04DX002 (ip), vehicle: saline with Tween-80 92 % of control and 95 % of control | endpoint: mean survival time, dose: 25.0 mg/kg/injection, schedule: Q04DX003 (ip), vehicle: saline with Tween-80 102 % of control | endpoint: mean survival time, dose: 50.0 mg/kg/injection, schedule: Q01DX001 (ip), vehicle: saline with Tween-80 93 % of control | [2] 88 % of control and 94 % of control | endpoint: mean survival time, dose: 50.0 mg/kg/injection, schedule: Q04DX002 (ip), vehicle: saline with Tween-80 92 % of control and 98 % of control | endpoint: mean survival time, dose: 50.0 mg/kg/injection, schedule: Q04DX003 (ip), vehicle: saline with Tween-80 92 % of control | [3] 87 % of control and 93 % of control | [4] 91 % of control and 96 % of control | [5] 91 % of control and 94 % of control | [6] 86 % of control | [7] 90 % of control | [8] 86 % of control | [9] 90 % of control | endpoint: mean survival time, dose: 400.0 mg/kg/injection, schedule: Q04DX003 (ip), vehicle: saline with Tween-80 88 % of control

CNC[C@@H](O)c1ccc(O)c(O)c1
inactive: endpoint: mean survival time, dose: 1.0 mg/kg/injection, schedule: Q01DX001 (ip), vehicle: saline 97 % of control | endpoint: mean survival time, dose: 2.0 mg/kg/injection, schedule: Q01DX001 (ip), vehicle: saline 100 % of control | endpoint: mean survival time, dose: 2.5 mg/kg/injection, schedule: Q01DX009 (ip), vehicle: saline 104 % of control | endpoint: mean survival time, dose: 4.0 mg/kg/injection, schedule: Q01DX001 (ip), vehicle: saline 107 % of control | endpoint: mean survival time, dose: 5.0 mg/kg/injection, schedule: Q01DX009 (ip), vehicle: saline 104 % of control | endpoint: mean survival time, dose: 8.0 mg/kg/injection, schedule: Q01DX001 (ip), vehicle: saline 103 % of control

OCCN=Cc1cccs1
inactive: [4] 101 % of control | [10] 95 % of control | [11] 110 % of control

Cc1cc2c(C(C)C)c(O)c(O)c(C=O)c2c(O)c1-c1c(C)cc2c(C(C)C)c(O)c(O)c(C=O)c2c1O
inactive: [12] 110 % of control | [13] 101 % of control

Cc1cccc(C)c1NC(=S)NNC(=O)c1ccncc1
inactive: [1] 101 % of control | [2] 97 % of control | [4] 92 % of control

Cn1nc(-c2ccccc2)nc1[N+](=O)[O-]
inactive: [14] 90 % of control and 103 % of control | [1] 97 % of control | [2] 103 % of control and 106 % of control | [4] 121 % of control and 100 % of control

Nc1nc(N)c2cc(CCc3ccc(C(=O)NC(CCC(=O)O)C(=O)O)cc3)ccc2n1 (stereo unspecified)
inactive: endpoint: mean survival time, dose: 0.31 mg/kg/injection, schedule: Q01DX009 (ip), vehicle: Klucel (hydroxypropylcellulose) (HPC) 119 % of control

O=C1C2CCCC3CCCC(C(=O)N1NC1CCCCC1)C32 (stereo unspecified)
inactive: [14] 96 % of control | [1] 89 % of control | [2] 86 % of control | [4] 88 % of control

Nc1ccc(/C=C/c2ccnc3ccccc23)cc1
inactive: endpoint: mean survival time, dose: 4.0 mg/kg/injection, schedule: Q01DX Z (ip), vehicle: saline 104 % of control | endpoint: mean survival time, dose: 8.0 mg/kg/injection, schedule: Q01DX Z (ip), vehicle: saline 101 % of control | endpoint: mean survival time, dose: 16.0 mg/kg/injection, schedule: Q01DX Z (ip), vehicle: saline 98 % of control

Cc1cn(C2OC3COC2C3O)c(=O)[nH]c1=O (stereo unspecified)
inactive: endpoint: median survival time, dose: 12.5 mg/kg/injection, schedule: Q01DX005 (ip), vehicle: saline with Tween-80 97 % of control | endpoint: median survival time, dose: 25.0 mg/kg/injection, schedule: Q01DX005 (ip), vehicle: saline with Tween-80 97 % of control | endpoint: median survival time, dose: 50.0 mg/kg/injection, schedule: Q01DX005 (ip), vehicle: saline with Tween-80 94 % of control | endpoint: median survival time, dose: 100.0 mg/kg/injection, schedule: Q01DX005 (ip), vehicle: saline with Tween-80 102 % of control | endpoint: median survival time, dose: 200.0 mg/kg/injection, schedule: Q01DX005 (ip), vehicle: saline with Tween-80 105 % of control

O=C(Nc1ccc(OCC2=NCCN2)cc1)c1ccc(C(=O)Nc2ccc(OCC3=NCCN3)cc2)cc1
inactive: endpoint: median survival time, dose: 3.12 mg/kg/injection, schedule: Q01DX009 (ip), vehicle: saline with Tween-80 102 % of control | [12] 96 % of control | [13] 98 % of control | endpoint: median survival time, dose: 25.0 mg/kg/injection, schedule: Q01DX009 (ip), vehicle: saline with Tween-80 101 % of control | endpoint: median survival time, dose: 50.0 mg/kg/injection, schedule: Q01DX009 (ip), vehicle: saline with Tween-80 98 % of control

Cc1cc(C)c(S(=O)(=O)Nc2cc(C)ccc2C)c(C)c1
inactive: [3] 98 % of control | [6] 96 % of control | endpoint: mean survival time, dose: 400.0 mg/kg/injection, schedule: Q01DX001 (ip), vehicle: saline with Tween-80 102 % of control

O=C(O)C1(O)C[C@@H](O)C(O)[C@H](O)C1 (stereo partly specified)
inactive: endpoint: mean survival time, dose: 100.0 mg/kg/injection, schedule: Q01DX001 (ip), vehicle: saline 102 % of control | endpoint: mean survival time, dose: 100.0 mg/kg/injection, schedule: Q04DX003 (ip), vehicle: saline 108 % of control | endpoint: mean survival time, dose: 200.0 mg/kg/injection, schedule: Q01DX001 (ip), vehicle: saline 96 % of control | endpoint: mean survival time, dose: 200.0 mg/kg/injection, schedule: Q04DX003 (ip), vehicle: saline 98 % of control | endpoint: mean survival time, dose: 400.0 mg/kg/injection, schedule: Q01DX001 (ip), vehicle: saline 100 % of control | endpoint: mean survival time, dose: 400.0 mg/kg/injection, schedule: Q04DX003 (ip), vehicle: saline 102 % of control

CCOC(=O)NC(=S)n1ncnc1N
inactive: endpoint: mean survival time, dose: 12.5 mg/kg/injection, schedule: Q04DX003 (ip), vehicle: saline 97 % of control | endpoint: mean survival time, dose: 25.0 mg/kg/injection, schedule: Q04DX003 (ip), vehicle: saline 102 % of control

O=S(=O)(O)O.[Fe]
inactive: endpoint: mean survival time, dose: 50.0 mg/kg/injection, schedule: Q01DX009 (ip), vehicle: saline sonified 86 % of control | [5] 96 % of control | [8] 88 % of control

CC(=O)OC(c1ccccc1)C(OC(C)=O)c1ccccc1 (stereo unspecified)
inactive: endpoint: mean survival time, dose: 75.0 mg/kg/injection, schedule: Q01DX001 (ip), vehicle: other 104 % of control | endpoint: mean survival time, dose: 150.0 mg/kg/injection, schedule: Q01DX001 (ip), vehicle: other 102 % of control | endpoint: mean survival time, dose: 300.0 mg/kg/injection, schedule: Q01DX001 (ip), vehicle: other 88 % of control

CC(Br)C(=O)OC1C=CCCC1 (stereo unspecified)
inactive: [2] 97 % of control | [4] 101 % of control

O=c1ccn(C2OC(CO)C(O)C2C[N+](=O)[O-])c(=O)[nH]1 (stereo unspecified)
inactive: endpoint: mean survival time, dose: 12.5 mg/kg/injection, schedule: Q01DX005 (ip), vehicle: water 96 % of control | endpoint: mean survival time, dose: 25.0 mg/kg/injection, schedule: Q01DX005 (ip), vehicle: water 97 % of control | endpoint: mean survival time, dose: 50.0 mg/kg/injection, schedule: Q01DX005 (ip), vehicle: water 94 % of control | endpoint: mean survival time, dose: 100.0 mg/kg/injection, schedule: Q01DX005 (ip), vehicle: water 91 % of control | endpoint: mean survival time, dose: 200.0 mg/kg/injection, schedule: Q01DX005 (ip), vehicle: water 88 % of control

CC(COCc1ccccc1)COP(N)(=O)N(CCCl)CCCl (stereo unspecified)
inactive: endpoint: mean survival time, dose: 15.62 mg/kg/injection, schedule: Q01DX001 (ip), vehicle: DMSO 97 % of control | endpoint: mean survival time, dose: 31.3 mg/kg/injection, schedule: Q01DX001 (ip), vehicle: DMSO 98 % of control | endpoint: mean survival time, dose: 62.5 mg/kg/injection, schedule: Q01DX001 (ip), vehicle: DMSO 101 % of control | endpoint: mean survival time, dose: 125.0 mg/kg/injection, schedule: Q01DX001 (ip), vehicle: DMSO 111 % of control | endpoint: mean survival time, dose: 250.0 mg/kg/injection, schedule: Q01DX001 (ip), vehicle: DMSO 103 % of control | endpoint: mean survival time, dose: 500.0 mg/kg/injection, schedule: Q01DX001 (ip), vehicle: DMSO 101 % of control

Nc1c(Br)cc(Br)c2c1CCC2
inactive: endpoint: mean survival time, dose: 100.0 mg/kg/injection, schedule: Q04DX002 (ip), vehicle: saline with Tween-80 94 % of control | [7] 105 % of control | [9] 94 % of control

COC(=O)C1(C)CCCC2(C)C3CC(O)C(C(C)C)=CC3(O)CCC12 (stereo unspecified)
inactive: [4] 100 % of control | [10] 96 % of control | [11] 86 % of control

C/C=C(/C)C(=O)O[C@H]1CC[C@@]2(C)[C@@H]3CC[C@H]4[C@]5(O)C[C@H](O)[C@@]6(O)[C@@H](CN7C[C@@H](C)CC[C@H]7[C@@]6(C)O)[C@]5(O)C[C@@]42O[C@@]13O
inactive: endpoint: mean survival time, dose: 0.5 mg/kg/injection, schedule: Q01DX009 (ip), vehicle: saline with Tween-80 101 % of control | endpoint: mean survival time, dose: 1.0 mg/kg/injection, schedule: Q01DX009 (ip), vehicle: saline with Tween-80 101 % of control | endpoint: mean survival time, dose: 2.0 mg/kg/injection, schedule: Q01DX009 (ip), vehicle: saline with Tween-80 101 % of control
